{"source": "ChEMBL document CHEMBL2321872", "about": "“Synthesis and antimycobacterial activity of 2,1'-dihydropyridomycins” (ACS Med Chem Lett, 2013)", "biological_target": "Enoyl-[acyl-carrier-protein] reductase [NADH] (Mycobacterium tuberculosis, UniProt P9WGR1, S94A)"}
{"smiles": "CC(C)[C@H]1OC(=O)[C@H](C)[C@H](O)[C@H](Cc2cccnc2)NC(=O)[C@@H](NC(=O)c2ncccc2O)[C@@H](C)OC1=O", "values": [{"measurement": "Ki", "result": 71, "unit": "µM"}]}
